≈ marks a conversion by molar mass, not a printed value.
How the values were obtained:
[1] = tested on: Enterococcus faecalis 2041; assay type: cell-based; conditions: Enterococcus faecalis, 2041
Protocol: (§1) The MIC's in Table VII were determined by standard agar-dilution assays.

Enterococcus faecium X66 = assay type: cell-based; conditions: Enterococcus faecium, X66
Protocol: as §1

[2] = tested on: Staphylococcus aureus V41; assay type: cell-based; conditions: Staphylococcus aureus, V41
Protocol: as §1

[3] = tested on: Staphylococcus aureus X1.1; assay type: cell-based; conditions: Staphylococcus aureus, X1.1
Protocol: as §1

[4] = tested on: Staphylococcus aureus X400; assay type: cell-based; conditions: Staphylococcus aureus, X400
Protocol: as §1

[5] = tested on: Staphylococcus epidermidis 222; assay type: cell-based; conditions: Staphylococcus epidermidis, 222
Protocol: as §1

[6] = tested on: Staphylococcus epidermidis 270; assay type: cell-based; conditions: Staphylococcus epidermidis, 270
Protocol: as §1

[7] = tested on: Streptococcus pyogenes C203; assay type: cell-based; conditions: Streptococcus pyogenes, C203
Protocol: as §1

[8] = tested on: Streptococcus pneumoniae Park 1; assay: microbe, parasite or virus in culture; assay type: cell-based; conditions: Streptococcus pneumoniae, PARK1
Protocol: as §1

[9] = tested on: Peptostreptococcus anaerobius; assay: Activity against anaerobic bacteria, agar-dilution MIC; assay type: cell-based; conditions: 24 h
[10] = tested on: Peptostreptococcus intermedius; assay: as above; assay type: cell-based; conditions: Peptostreptococcus, 24 h
Propionibacterium acnes = assay: as above; assay type: cell-based; conditions: Cutibacterium acnes, 24 h
Bacteriodes fragilis = assay: as above; assay type: cell-based; conditions: 24 h
[11] = tested on: Bacteriodes melaninogenicus; assay: as above; assay type: cell-based; conditions: 24 h
Bacteroides corrodens = assay: as above; assay type: cell-based; conditions: Eikenella corrodens, 24 h
Staphylococcus aureus = assay: In vivo activity against experimentally-induced infection in mice; conditions: doses administered subcutaneously to mice 1 and 4 hours postinfection
Protocol: (§2) The A83850 antibiotics have also shown in vivo antimicrobial activity against experimentally-induced infections in laboratory animals. When two doses of test compound were administered to mice experimentally infected with the test organism, the activity observed was measured as an ED50 value [effective dose in mg/kg to protect 50% of the test animals: see Warren Wick, et al., J. Bacteriol. 81, 233-235 (1961)].
(§3) ^a mg/kg × 2; doses administered subcutaneously to mice 1 and 4

Streptococcus pneumoniae = assay: as above; conditions: doses administered subcutaneously to mice 1 and 4 hours postinfection
Protocol: as §2, §3

Streptococcus pyogenes = assay: as above; conditions: doses administered subcutaneously to mice 1 and 4 hours postinfection
Protocol: as §2, §3

[12] = tested on: Culture A83850 (Amycolatopsis albus NRRL 18532); assay: Resistance of culture A83850 to antibiotics, sensitivity discs on seeded ISP No. 2 agar plates; assay type: cell-based; conditions: disc content printed per antibiotic
Protocol: Resistance to antibiotics was measured by padding antibiotic sensitivity discs onto the surface of seeded ISP No. 2 agar plates.

Clostridium perfringens = assay: microbe, parasite or virus in culture; conditions: 24 h
Clostridium septicum = assay: microbe, parasite or virus in culture; conditions: 24 h
Eubacterium aerofaciens = assay: microbe, parasite or virus in culture; conditions: Collinsella aerofaciens, 24 h
Fusobacterium symbiosum = assay: microbe, parasite or virus in culture; conditions: 24 h
[13] = tested on: Fusobacterium necrophorum; assay: microbe, parasite or virus in culture; conditions: 24 h
Clostridium difficile = assay: Activity against anaerobic bacteria, agar-dilution MIC; conditions: Clostridioides difficile, 24 h
[14] = tested on: Peptococcus asaccharolyticus; assay: as above; conditions: Peptoniphilus asaccharolyticus, 24 h
Peptococcus prevoti = assay: as above; conditions: 24 h
[15] = tested on: Bacteriodes thetaiotaomicron; assay: as above; conditions: 24 h
Bacteriodes vulgatis = assay: as above; conditions: 24 h

CN[C@H](CC(C)C)C(=O)N[C@H]1C(=O)N[C@@H](CC(N)=O)C(=O)N[C@H]2C(=O)N[C@H]3C(=O)N[C@H](C(=O)N[C@H](C(=O)O)c4cc(O)cc(O)c4-c4cc3ccc4O)[C@H](O)c3ccc(c(Cl)c3)Oc3cc2cc(c3O[C@@H]2O[C@H](CO)[C@@H](O)[C@H](O)[C@H]2O[C@H]2C[C@](C)(N)[C@H](O)[C@H](C)O2)Oc2ccc(cc2Cl)[C@H]1O [Vancomycin, vancomycin, reference compound]
MIC [1]: 4 µg/mL (≈ 2.76 µM)
MIC (Enterococcus faecium X66): 1 µg/mL (≈ 0.69 µM)
MIC [2]: 0.5 µg/mL (≈ 0.345 µM)
MIC [3]: 0.5 µg/mL (≈ 0.345 µM)
MIC [4]: 1 µg/mL (≈ 0.69 µM)
MIC [5]: 1 µg/mL (≈ 0.69 µM)
MIC [6]: 1 µg/mL (≈ 0.69 µM)
MIC [7]: 0.5 µg/mL (≈ 0.345 µM)
MIC [8]: 0.5 µg/mL (≈ 0.345 µM)
MIC [9]: 1 µg/mL (≈ 0.69 µM)
MIC [10]: 2 µg/mL (≈ 1.38 µM)
MIC (Propionibacterium acnes): 4 µg/mL (≈ 2.76 µM)
MIC (Bacteriodes fragilis): 16 to 32 µg/mL (≈ 11 to 22.1 µM)
MIC [11]: 128 µg/mL (≈ 88.3 µM)
MIC (Bacteroides corrodens): 32 µg/mL (≈ 22.1 µM)
ED50 Value (Staphylococcus aureus): 1.43 mg/kg × 2
ED50 Value (Streptococcus pneumoniae): 0.67 mg/kg × 2
ED50 Value (Streptococcus pyogenes): 0.98 mg/kg × 2
Resistance or inhibition of culture A83850 by antibiotic disc [12]: inhibited
MIC (Clostridium perfringens): 2 µg/mL (≈ 1.38 µM)
MIC (Clostridium septicum): 2 µg/mL (≈ 1.38 µM)
MIC (Eubacterium aerofaciens): 8 µg/mL (≈ 5.52 µM)
MIC (Fusobacterium symbiosum): 2 µg/mL (≈ 1.38 µM)
MIC [13]: 1 µg/mL (≈ 0.69 µM)
MIC (Clostridium difficile): 2 µg/mL (≈ 1.38 µM)
MIC [14]: 4 µg/mL (≈ 2.76 µM)
MIC (Peptococcus prevoti): 4 µg/mL (≈ 2.76 µM)
MIC [15]: 64 µg/mL (≈ 44.2 µM)
MIC (Bacteriodes vulgatis): 16 µg/mL (≈ 11 µM)
